{"source": "patent US12448399B2", "about": "“Cereblon-based KRAS degrading PROTACs and uses related thereto” (Arvinas Operations, Inc., priority 2023, dated 2025)", "key": {"[1]": {"test_system": "AsPC-1", "assay": "Tumor growth inhibition in vivo, AsPC-1 pancreatic cancer model", "design": "species or system CB17 SCID female mice", "conditions": "AsPC-1 model, dosed intravenously (IV)", "method": "(§1) The effect on tumor growth of treatment with Compound 69 and 102 was assessed in the GP2d (95090714 Millipore Sigma, USA) and LS180 (CL-187 ATCC, USA) colorectal cancer models, and the AsPC-1 (CRL-1682 ATCC, USA), SW1990 (CRL-2172, ATCC, USA), HPAC (CRL-2119 ATCC, USA), and Panc04.03 (CRL-2555 ATCC, USA) pancreatic cancer models. Briefly, cells were grown in HYPER flasks (Corning) and harvested and prepared for implant by preparing a suspension with a final concentration of 25×10^6 cells/ml in 50% matrigel (Corning) and 50% phenol red-free media (Gibco DMEM or RPMI-1640, depending on cell line). For Panc04.03, 6-7 week NOD/SCID female mice (GemPharmatech Co. Ltd) were inoculated with 200 μl of the cell suspension ([…]) subcutaneously on the left flank under sterile conditions. For all other cell lines, 6-8 weeks old CB17 SCID female mice (Charles River Laboratories) were inoculated with 200 μl of the cell suspension (5 million cells/mouse) subcutaneously on the left flank under sterile conditions. Studies were initiated when tumors reached an average of approximately 200 mm^3. […] Tumor growth inhibition (TGI) was calculated using the formula % TGI=(VC−VT)/(VC−V0)×100 where VC, VT are the average of control and treated groups at the end of the study, and V0 is the average tumor volume at randomization."}, "[2]": {"test_system": "GP2d", "assay": "Tumor growth inhibition in vivo, GP2d colorectal cancer model", "design": "species or system CB17 SCID female mice", "conditions": "dosed intravenously (IV)", "method": "as §1"}, "[3]": {"biological_target": "T1, KRas-G12D (Homo sapiens, UniProt P01116, G12D)", "T1 construct": "insert the HiBiT tag onto the N-terminus of one or more of the endogenous KRas alleles; host or cells: AsPC-1 HiBiT-KRasG12D knock-in clone (one tagged allele, two untagged KRasG12D alleles)", "T1 sequence (P01116 1-188 isoform P01116-2 G12D)": "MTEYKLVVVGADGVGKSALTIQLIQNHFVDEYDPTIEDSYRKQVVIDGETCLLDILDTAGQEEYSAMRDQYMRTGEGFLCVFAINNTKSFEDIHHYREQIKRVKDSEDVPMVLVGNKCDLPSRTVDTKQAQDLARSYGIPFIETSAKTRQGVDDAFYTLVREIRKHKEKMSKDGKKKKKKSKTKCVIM", "assay": "HiBiT Degradation Assay (G12D), AsPC-1 HiBiT-KRasG12D cells, 24 hr", "format": "cell-based", "procedure,_shortened": "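AsPC-1 cells with CRISPR N-terminal HiBiT knock-in on one endogenous KRasG12D allele, treated 24 hr at 37° C with compound titrations in 0.5% DMSO. Lytic HiBiT luminescence normalized to DMSO, fitted to a 4-parameter model for DC50 and Dmax. Parallel alamar blue (4 hr) checked viability.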"}, "[4]": {"test_system": "Panc04.03", "assay": "Tumor growth inhibition in vivo, Panc04.03 pancreatic cancer model", "design": "species or system NOD/SCID female mice", "conditions": "Panc04.03 model, dosed intravenously (IV)", "method": "as §1"}, "[5]": {"test_system": "SW1990", "assay": "Tumor growth inhibition in vivo, SW1990 pancreatic cancer model", "design": "species or system CB17 SCID female mice", "conditions": "dosed intravenously (IV)", "method": "as §1"}, "[6]": {"test_system": "LS180", "assay": "Tumor growth inhibition in vivo, LS180 colorectal cancer model", "design": "species or system CB17 SCID female mice", "conditions": "dosed intravenously (IV)", "method": "as §1"}, "[7]": {"test_system": "HPAC", "assay": "Tumor growth inhibition in vivo, HPAC pancreatic cancer model", "design": "species or system CB17 SCID female mice", "conditions": "dosed intravenously (IV)", "method": "as §1"}}, "data": [{"smiles": "C#Cc1c(F)ccc2cc(O)cc(-c3ncc4c(N5CC6CCC(C5)N6)nc(OCCN5CCC(CC6CCN(CC7CCN(c8ccc9c(c8)n(C)c(=O)n9C8CCC(=O)NC8=O)CC7)CC6)CC5)nc4c3F)c12", "note": "(centres unmarked) [Compound 102, 3-[5-[4-[[4-[[1-[2-[4-(3,8-diazabicyclo[3.2.1]octan-3-yl)-7-(8-ethynyl-7-fluoro-3-hydroxy-1-naphthyl)-8-fluoro-pyrido[4,3-d]pyrimidin-2-yl]oxyethyl]-4-piperidyl]methyl]-1-piperidyl]methyl]-1-piperidyl]-3-methyl-2-oxo-benzimidazol-1-yl]piperidine-2,6-dione]", "values": [{"measurement": "TGI", "setting": "[1]", "result": 100, "unit": "%"}, {"measurement": "Tumor growth inhibition (TGI)", "setting": "[2]", "result": "robust TGI"}, {"measurement": "Dmax", "setting": "[3]; ASPC1, AsPC-1 cells, maximum degradation observed", "result": "> 70", "unit": "%"}, {"measurement": "DC50", "setting": "[3]; AsPC-1 cells", "result": "< 5.1", "unit": "µM"}, {"measurement": "Tumor growth inhibition (TGI)", "setting": "[4]", "result": "robust TGI"}, {"measurement": "Tumor growth inhibition (TGI)", "setting": "[5]", "result": "robust TGI"}, {"measurement": "Tumor growth inhibition (TGI)", "setting": "[6]", "result": "robust TGI"}, {"measurement": "Tumor growth inhibition (TGI)", "setting": "[7]", "result": "robust TGI"}]}]}
